The subject of one data set is LNCaP cells. In words: Cell cycle analysis (G1 arrest). Type of data set: cell-based, human. The conditions noted are these: 2.5 µM as effective as Gal at 20 µM. From the text:
The new NGGAs (VNPP414 and VNPP433-3β) were identified from in vitro anti-proliferative activities of our in-house compounds assessed in several PC cell lines, including LNCaP, C4-2B, and CWR22Rv1 (22Rv1). […] It was recently reported that treatment of AR-expressing bladder cancer cell lines with enzalutamide induced up-regulation of tumor suppressor, p53, p21 and PTEN, and down-regulation of several oncogenic genes, such as c-myc, cyclin D1, and cyclin E [38]. […] We note that these cell-cycle studies were conducted in LNCaP cells. Inhibition of colony formations (clonogenicity assays) was also assessed by treating the parental CWR-R1 cells and two drug-resistant counterparts with Gal, VNPP433-3β, or ENZ.
(A) Comparative GI50 values of Gal, NGGAs, and enzalutamide (ENZ) in drug-naïve-/-resistant prostate cancer cells. (B) Gal and NGGAs induce G1 cell cycle arrest in LNCaP cells. (C) VNPP414 and VNPP433-3β deplete the cell cycle regulator, cyclin D1, and upregulate p21; “+” indicates specific treatments. (D) Gal cause dose-dependent depletion of cyclin D1. (E) Unlike ENZ, Gal and VNPP433-3β inhibit colony formation of drug-naïve/-resistant cells in vitro. […] (F) Quantification of colony formation units (CFU) in drug-naive/resistant cells. Colony assays were repeated three times and colonies counted in four quadrants of the wells. […]

Data set [1] has as its system CWR-R1, CWR-R1 (10E), CWR-R1-MTX20nM cells. As to the kind of experiment: Colony formation (clonogenicity) assay. Type of data set: cell-based, human. The conditions noted are these: parental CWR-R1 and drug-resistant counterparts, 14 days. An excerpt:
(A) Comparative GI50 values of Gal, NGGAs, and enzalutamide (ENZ) in drug-naïve-/-resistant prostate cancer cells. (B) Gal and NGGAs induce G1 cell cycle arrest in LNCaP cells. (C) VNPP414 and VNPP433-3β deplete the cell cycle regulator, cyclin D1, and upregulate p21; “+” indicates specific treatments. (D) Gal cause dose-dependent depletion of cyclin D1. (E) Unlike ENZ, Gal and VNPP433-3β inhibit colony formation of drug-naïve/-resistant cells in vitro. 1000 cells/well (CWR-R1, CWR-R1 (10E), CWR-R1-MTX20nM), seeded in 6-well plates were treated with indicated concentrations of compounds for a period of 14 days. Media containing compounds were replaced every 3 days. Colonies were stained with 0.05% crystal violet. (F) Quantification of colony formation units (CFU) in drug-naive/resistant cells. Colony assays were repeated three times and colonies counted in four quadrants of the wells. Results are represented as averages with S.E.M. (* p < 0.05, ** p < 0.001). Note: the numbers in parentheses in Figure 2B,C,E are concentrations of the agents in µM.
0.1 × 10^3 cells per well were seeded in 6-well plates and allowed to attach overnight (16 h), cells were treated with compounds in regular media (RPMI with 10% FBS) at the indicated concentrations and replaced every 3rd day for 14 days or until visible colonies could be counted. Colonies were washed and stained with 0.05% crystal violet for 30 min. Colonies were scanned and quantified (colonies counted in four quadrants of each well) with ImageJ colony counter. Results are represented as the mean of triplicates.

For the next data set, the system named is PC-3 cells. As to the kind of experiment: Wound-healing cell migration assay. Type of data set: cell-based, human. Conditions: PC-3, wound healing, 12 h.
Data set [2] can be described thus: Plasma pharmacokinetics after single IV, IP or PO dose. Type of data set: in vivo, male CD-1 mice. Conditions: for bioavailability: read-out: F (%) absolute bioavailability. As to the method: These studies were conducted in male CD-1 mice (7–8 weeks old, weighing about 27–33 g) were obtained from Hylasco Bio-Technology Pvt. Ltd. (A Charles River Technology Licensee, Turkapally, India). The details are presented in the Supplementary Materials.
A generic gradient LC method with a short run times of 3.5 min for Gal and 4.5 min for VNPP414 and VNPP433-3β were developed for the analysis of Gal/analogs in plasma samples. The mobile phase flow rate was 1.0 mL/min with a split ratio of 1:1 to the ionization source. The mobile phase for Gal consisted of 10 mM ammonium acetate in water as aqueous component and 100% methanol as organic modifier. For the Gal analogs, the mobile phase consisted of 0.01% formic acid in water and 100% acetonitrile. The column and autosampler were maintained at 40°C and 15°C, respectively for all assays. The turbo ion spray source was operated with typical settings as follows: ionization mode, positive; curtain gas, 30 psi; nebulizer gas (GS1), 55 psi; heater gas (GS2), 50 (for Gal analyte) and 60 (for Gal analogs analytes) psi; nebulizer gas 55 psi; temperature, 550 °C. A summary of the ion transitions, collision energies and retention times for both the analytes (Gal, VNPP414 and VNPP433- […]
components were automatically integrated using Analyst software version 1.5.
Table S1. Optimized mass spectroscopic conditions. *IS: internal standard; **Gal had two daughter ions (m/z: 119.20 and 195.20) that were used for multiple reaction monitoring (MRM) in LC-MS/MS runs. Because we observed a poor shape peak of Gal with fragment of m/z 195.20 at lower levels (LLOQ: 1 ng/mL) in plasma samples, we used fragment m/z 119.20 for the PK study. We used fragment of m/z 195.20 when Gal was used as IS where the concentration was ~200 ng/mL. This fragment was stable throughout the study.
Analytes Parent ions Daughter ions Collision energy Declustering potentials […]
1.5. Pharmacokinetics of Gal, VNPP414 and VNPP433-3β in CD-1 Mice
Male CD-1 mice (7-8 weeks old, weighing about 27-33 g) were obtained from Hylasco Bio-Technology Pvt. Ltd (A Charles River Technology Licensee in India) were maintained in a controlled environment of about 25 °C, 50% relative humidity and a 12-h light/12-h dark cycle. The compounds were formulated in either 10% DMSO in 10% solutol in phosphate-buffered saline (PBS) for single intravenous doses (1 mg/kg) or in 40% β-cyclodextrin in saline for single intraperitoneal or oral doses (10 mg/kg). 10 ml/kg dose volume used for administrating the formulation for all the three routes (IV, IP and PO). The IV administration was performed through tail vein of mice as bolus. For IP route, the compound was dosed in intraperitoneal cavity using a 27-gauze needle. PO administration was performed through gastric gavage tube (aka feeding tube). Serial blood samples were collected from 3 mice per time-point (staggered bleeding approach was used for mice where one mice was bled maximum for three time within 24h) into vacutainers containing lithium heparin (anticoagulant) at and 24 h post dose after intraperitoneal or oral administration. In total, 81 mice were used for this study. At each time point 200 μL of blood was collected into vacutainers. Venous blood Samples were collected using retro orbital puncture method. Plasma was isolated by centrifugation at 10000 rpm for 10 min and stored frozen at -80°C until assay. Plasma pharmacokinetic parameters were calculated using the non-compartmental analysis tool of Phoenix software (Version 7, Pharsight) and were determined from individual animals in each group. The area under the plasma concentration-time curve (AUC0-t and AUCinf), elimination half-life (T1/2), clearance (CL), volume of distribution (Vd) and mean residence time (MRT) were calculated from intravenous group. The peak plasma concentration (Cmax), time to achieve peak plasma concentration (Tmax), AUC0-t and AUCinf, were […]
calculated for the IP and PO groups. Absolute oral bioavailability (%F) were calculated from the PO […]

[3] abbreviates: PO 10 mg/kg, male CD-1 mice, 10 mg/kg.
The mark [4] stands for this setting: male, CD-1, mouse, in vivo, ip, 10 mg/kg, IP 10 mg/kg, male CD-1 mice.
Where [5] appears, read: male, CD-1, mouse, in vivo, po, 10 mg/kg, PO 10 mg/kg, male CD-1 mice.
The mark [6] stands for this setting: mouse, in vivo, IP 10 mg/kg, male CD-1 mice, plasma.
The mark [7] stands for this setting: mouse, in vivo, PO 10 mg/kg, male CD-1 mice, plasma.
Where [8] appears, read: mouse, plasma, IP 10 mg/kg, male CD-1 mice.
Where [9] appears, read: mouse, plasma, IV 1 mg/kg, male CD-1 mice.
[10] abbreviates: mouse, plasma, PO 10 mg/kg, male CD-1 mice.
Setting [11] is: mouse, IP 10 mg/kg, male CD-1 mice, plasma.
The mark [12] stands for this setting: mouse, IV 1 mg/kg, male CD-1 mice, plasma.
Setting [13] is: mouse, PO 10 mg/kg, male CD-1 mice, plasma.

As usually defined, the half-life is the time needed for the level to fall by half in the phase considered. Low readings indicate rapid decline, high ones slow decline. A word on the AUC: it is the area under the concentration-time curve, a measure of exposure. Low values mean low exposure, high ones high exposure. As a reminder, the Cmax is the peak of the concentration-time curve. As usually defined, the AUC(0-inf) is the area under the concentration-time curve extrapolated to infinity.

Each structure is given as a SMILES string. Entries after “also recorded” stand apart in the source; their conditions may differ. Like-named read-outs stand apart in the source and are kept apart here.

For `C[C@]12CC[C@H](n3ccnc3)CC1=CCC1C2CC[C@]2(C)C(n3cnc4ccccc43)=CCC12` (stereo partly drawn) [VNPP433-3β], in the data set on LNCaP cells, the “improved potency over Gal in G1 cell cycle arrest” value is given as at least 8 fold. Besides, the “inhibition of colony formation” value in data set [1] was “significantly more potent than Gal; also recorded: markedly inhibited clonogenic ability”. For the same compound, in the data set on PC-3 cells, the “inhibition of cell migration” value is listed as “significant inhibition of PC-3 cells migration”. The “F (%) absolute bioavailability” value in data set [2] (setting [3]) is on record as 49.45%. Also, the T1/2 in data set [2] (setting [3]) stood at 31.19 h. For the same compound, the half-life in data set [2] (setting [4]) is 22.4 h; in data set [2] (male, CD-1, mouse, in vivo, iv, 1 mg/kg, IV 1 mg/kg, male CD-1 mice), 14.3 h; in data set [2] (setting [5]) it was 31.2 h. Moreover, the bioavailability in data set [2] (setting [4]) is 123%; in data set [2] (setting [5]) it was about 50%. This compound also came in with an AUC in data set [2] (male, CD-1, mouse, in vivo, 10 mg/kg oral dosing, mice) of 71.9 µM·h. In addition, the maximum concentration (Cmax) in data set [2] (male, CD-1, mouse, in vivo, PO 10 mg/kg, plasma, converted from ng/mL) was about 2000 nM; in data set [2] (setting [6]) it was 2290 ng/mL; in data set [2] (setting [7]) it was 706 ng/mL. Moreover, the total exposure AUC(0-inf) was 57300 ng·h/mL in data set [2] (setting [6]); 3470 ng·h/mL in data set [2] (mouse, in vivo, IV 1 mg/kg, male CD-1 mice, plasma); 31800 ng·h/mL in data set [2] (setting [7]).
For `C[C@]12CC[C@H](O)CC1=CC[C@@H]1[C@@H]2CC[C@]2(C)C(n3cnc4ccccc43)=CC[C@@H]12` [Galeterone], the “inhibition of colony formation” value in data set [1] is “markedly inhibited clonogenic ability”. Moreover, the half-life in data set [2] (male, CD-1, mouse, plasma, range over IV, IP and PO routes, mice) is 0.17 to 1.26 h; in data set [2] (setting [8]), 1.24 h; in data set [2] (setting [9]), 0.17 h; in data set [2] (setting [10]), 1.26 h. Moreover, the bioavailability in data set [2] (setting [8]) was 169%; in data set [2] (setting [10]) it was 18.4%. The figures for the AUC(0-inf) in data set [2] (setting [11]), in data set [2] (setting [12]) and in data set [2] (setting [13]) were 111 ng·h/mL, 57.9 ng·h/mL and 969 ng·h/mL, respectively. The figures for the Cmax in data set [2] (setting [11]) and in data set [2] (setting [13]) were 507 ng/mL and 32.8 ng/mL, respectively.
For the compound `C[C@]12CC[C@H](OCc3ccncc3)CC1=CCC1C2CC[C@]2(C)C(n3cnc4ccccc43)=CCC12` (some centres unmarked) [VNPP414], in the data set on LNCaP cells, the “improved potency over Gal in G1 cell cycle arrest” value is reported as at least 8 fold. In addition, the “inhibition of cell migration” value with PC-3 cells was “significant inhibition of PC-3 cells migration”. Also, the half-life in data set [2] (setting [8]) is 6.25 h; in data set [2] (setting [9]), 7.48 h; in data set [2] (setting [10]), 4.3 h. Also, the bioavailability turned out to be 157% in data set [2] (setting [8]) and 19.4% in data set [2] (setting [10]). Further, the AUC(0-inf) in data set [2] (setting [11]) is 8600 ng·h/mL; in data set [2] (setting [12]), 547 ng·h/mL; in data set [2] (setting [13]) it was 1030 ng·h/mL. Further, the Cmax in data set [2] (setting [11]) came out at 2170 ng/mL; in data set [2] (setting [13]), 175 ng/mL.

These data come from article PMC6895912 (Cancers, 2019).
